Test results taken from paper PMC8524856 (Biochemistry, 2021).

What was measured:
HS19.10 = conditions: 2.0 mM L-glutamate, 250 μM PLP, 50 mM HEPES/K+, pH 8.0, 25 °C; DHAP varied
[1] = test system: N[C@@H](COP(=O)(O)O)C(=O)O; assay: purified protein; conditions: 100 mM HEPES/K+, pH 8.0, 25 °C, 250 μM PLP

Compound | Km (HS19.10) [µM] | kcat [1] [s⁻¹]
O=C(CO)COP(=O)(O)O [DHAP] | 41 ± 2 | –
Cj1436 (Campylobacter jejuni subsp. jejuni NCTC 11168 = ATCC 700819) | – | 0.21 ± 0.02
